Reference: patent publication US12729407B2, “Mucins and isoforms thereof in diseases characterized by barrier dysfunction” (priority 2020, dated 2026)
Read-outs that look alike come from different tables or passages of the source.

System: Calu3 cells infected with SARS-CoV-2
Format: cell-based, human
[1] = Calu3 cells, SARS-CoV-2 0.1 MOI 2 h, then drug 48 h, vs untreated infected cells

| Compound | MUC1 mRNA expression | MUC4 mRNA expression | MUC5AC mRNA expression | MUC5B mRNA expression | MUC13 mRNA expression | MUC21 mRNA expression | mucin hypersecretion (mucins of the signature: MUC13, MUC21, MUC16 and MUC1) (concluding remark on the Calu3 drug screen) | MUC1 mRNA expression [1] | MUC4 mRNA expression [1] | MUC21 mRNA expression [1] |
| --- | --- | --- | --- | --- | --- | --- | --- | --- | --- | --- |
| NC(=O)c1nc(F)c[nH]c1=O [favipiravir] | increase | decrease | decrease | decrease | decrease | decrease | suppress mucin hypersecretion | – | – | – |
| Tocilizumab [toculizumab] | – | – | – | – | – | – | – | significantly reduce | significantly reduce | significantly reduce |
